Series [1] deals with A549 cells. As to the kind of experiment: Antiproliferative effect of pUNO1-hTRAIL vs pCMV-Gluc lipoplexes, MTT, A549. The settings on record: N/P 3, 1 eq. DOPE, pDNA 0.3 and 0.4 μg/well. It is filed as cell-based, human. How it is done: Cells were treated with lipoplexes prepared from pro-APLs ME12, PE12, and EE12, with increasing dose of pDNA (0.1–0.4 μg per well). The gold standard gene delivery reagent Lipofectamine® 2000 was assayed in parallel for comparison purpose. In order to distinguish the intrinsic cytotoxic effect of the in situ generated APLs from that resulting from TRAIL expression, pCMV-Gluc was assayed in parallel to pUNO1-hTRAIL. Using pCMV-Gluc, the observed cytotoxicity was assumed to result only from the APL antiproliferative activity, whereas results obtained with pUNO1-hTRAIL are a combination of TRAIL activity and APL antiproliferative effect. […] Though the temptation is to take it as an indicator that functional TRAIL was produced, the difference found was not always statistically significant. The activity profile of the three pro-APLs varied according to the cell line. […]
Figure 8 Antiproliferative effect of lipoplexes prepared from ME12 (A), PE12 (B), EE12 (C), and the two DNA plasmids pCMV-Gluc (light bars) and pUNO1-hTRAIL (dark bars), on the three cell lines. […] Lipofectamine®-based lipoplexes (0.1 μg plasmid/well) were prepared according to the optimized experimental conditions determined following the supplier's instructions. Cell viability was measured by the MTT assay. Basal mitochondrial activity measured in untreated cells is set at 100%. […]

Details of series [2]: method as in Gaillard et al., 2019. The settings on record: ref Gaillard et al., 2019, cited from earlier work.
Details of series [3]: method as in Gaillard et al., 2019. The settings on record: pyrene fluorescence; ref Gaillard et al., 2019; cited from earlier work.
In series [4] the test system is A549 cells. More on the design: method as in Gaillard et al., 2019. Particulars: A549, 24 h at 37°C, MTT assay; ref Gaillard et al., 2019; cited from earlier work.
Series [5] relates to H292 cells. More on the design: method as in Gaillard et al., 2019. The settings on record: H292, 24 h at 37°C, MTT assay; ref Gaillard et al., 2019; cited from earlier work.
Series [6] deals with 16HBE cells. More on the design: method as in Gaillard et al., 2019. The settings on record: 24 h at 37°C, MTT assay, ref Gaillard et al., 2019; cited from earlier work.
Details of series [7]: method as in Gaillard et al., 2019. The settings on record: lipoplexes with pCMV-Gluc, N/P 3, 1 molar equivalent of DOPE; ref Gaillard et al., 2019; cited from earlier work.
Series [8] relates to sheep RBC. Particulars: sheep RBC, 37°C, ref Gaillard et al., 2019, cited from earlier work.
Series [9] is described as follows: CMC/CAC by pyrene fluorescent probe technique in ultrapure water. It is filed as physicochemical. Particulars: pyrene fluorescence. On the procedure: The pro-APL molecules have been specifically engineered so they can be metabolized in situ under a biological stimulus to revert to the parent APL with antiproliferative activity. […] We thus aimed to determine the self-assembly properties of the APL prodrugs. […] Pyrene is a probe which fluorescence is sensitive to the polarity of the solubilizing medium. […] Fluorescence measurements were carried out in ultrapure water and data obtained for the various APLs and their prodrugs are shown in Table 2.
Pro-APLs Self-Assembly Properties
Starting from a lipid film, compounds were […]

The test system of series [10] is A549 cells. As to the kind of experiment: Cytotoxicity, MTT assay, A549. Format: cell-based, human. The settings on record: Homo sapiens, A549, 24 h at 37°C. On the procedure: (§1) The cells were exposed for a 24-h period to increasing concentration of the pro-APLs, ranging from 500 nM to 1 mM, and cell viability was assessed using the MTT colorimetric assay (Mosmann, [1983]). For the three cell lines, viability decreased in a dose-dependent manner in response to APLs and pro-APLs (Supplementary Figures 2–4). Using the best-fit regression curve method, the IC50 value (concentration that provokes 50% inhibition of the cell growth) was calculated for each compound (Table 4). The three cell lines responded to the compounds with varying sensitivities. […] This is attributed to enzyme-mediated hydrolysis of the pro-APL compounds in the complemented culture medium or in the intracellular compartment, competing with pure pH-controlled chemical hydrolysis. According to its structure, a pro-APL may or not be a substrate for specific lipases and, thus, may or not be hydrolyzed into the parent cytotoxic compound. […]
(§2) At confluency, cells were released […]
(§3) Cells were seeded into 96-well plates (Becton-Dickinson) at the required density (vide supra) in 100 µL of serum containing culture medium. […]
(§4) Mitochondrial activity measurements (MTT assay) was used to assess cytotoxicity of the compounds.
(§5) Lipid samples were prepared from a lipid film (3.6 µmol of compound evaporated from an ethanolic solution) hydrated with aqueous glucose 5 % and vigorously vortexed for 20 s before serial dilution in aqueous glucose 5 %. For addition of lipid samples to cell culture, part of the culture medium in the culture plates prepared the day before (25 µL) was removed and replaced by lipid samples (25 µL). Negative control was obtained by adding glucose 5 % to the cells instead of lipoplexes.
(§6) After a 24-h incubation period at 37 °C, culture supernatant was removed, cells were carefully washed with PBS and MTT (100 µL, 0.5 mg/mL) in complete culture medium was added. After a 1-h incubation period at 37 °C, the MTT sol ution was removed and DMSO (100 µL) was added to lyse cells and dissolve reduced MTT. Intensity of MTT reduction was then evaluated by measuring absorbance at 492 nm. Viability of cells treated with lipids or lipoplexes was expressed as the percentage of the absorbance measured in untreated cells. Value for each sample is the mean of triplicate determinations (± SD). IC50 values were determined within the 95 % confidence interval using nonlinear regression analysis with the GraphPad Prism software (GraphPad Software, San […]
(§7) All data are representative of a triplicate determination and are presented as the mean ± SD.
(§8) Statistical significance between treatments was assessed by one-way analysis of variance (ANOVA) followed by the Dunnett multiple comparison test, using the Kaleidagraph 4.5 software (Synergy Software, Reading, PA, USA). Data were considered as statistically significant for p value less than

For series [11], the system named is H292 cells. As to the kind of experiment: Cytotoxicity, MTT assay, H292. It is filed as cell-based, human. The settings on record: Homo sapiens, NCI-H292, H292, 24 h at 37°C. On the procedure:
as §1, §2, §3, §4, §5, §6, §7, §8

Series [12] concerns 16HBE cells. Put plainly: Cytotoxicity, MTT assay, 16HBE. It is filed as cell-based, human. Particulars: Homo sapiens, 24 h at 37°C. On the procedure: as §1, §2, §3, §4, §5, §6, §7, §8
Details of series [13]: method as in Yaseen et al., 2005. Particulars: Du Noüy ring method; ref Yaseen et al., 2005; cited from earlier work.
The conditions of series [14]: Langmuir trough method, cited from earlier work.
Another series deals with red blood cells (RBC). The settings on record: cited from earlier work.
Series [15] concerns sheep RBC. As to the kind of experiment: Hemolytic activity, red blood cell leakage assay. The settings on record: 1 h, 37°C.
Experimental: To evaluate this hypothesis, the hemolytic activity of the APLs and pro-APLs was measured. Sheep RBC were incubated for 1 h with escalating doses of aqueous dispersion of the compounds at 37°C. At the end of the incubation period, hemoglobin leakage was determined spectrophotometrically.
Thus, in order to better characterize the hemolytic effect of the pro-APLs, the incubation period has been extended and release of hemoglobin was measured after 24 h.
Red blood cell (RBC) leakage assay was carried out according to a previously described procedure
(Evans et al, 2013). RBC were prepared from defibrinated sheep blood. Briefly, blood sample (5 mL) was centrifuged at 500 x g for 5 min. After removal of the yellow upper layer, an equal volume of

Like-named read-outs stand apart in the source and are kept apart here. A value given as a limit tells only on which side of the number the result lay.

Take `CCCCCCCC/C=C\CCCCCCCCCCCCOP(=O)(OCCC[N+](C)(C)C)OCOC(=O)CCCCCCCCCCC` (stereo not drawn) [EE12]: in the series with A549 cells [1], the TRAIL-induced cell death is 15-17%. Moreover, the “H120 (hydrolysis rate after a 120-h incubation period)” value was 2% in [2] (pH 4.5) and 17% in series [2] (pH 7.4). The “CMC (APLs) / CAC (pro-APLs)” value in [3] was 0.6 ± 0.2 µM. The IC50 in the series on A549 cells [4] is 151 ± 42 µM; in the series on H292 cells [5], 125 ± 26 µM; with 16HBE cells [6] it was 144 ± 66 µM. In addition, in [7], the “Particle size of lipoplexes” value is reported as 141 ± 5 nm. For the same molecule, the results for the “HA200 (hemolytic activity at 200 μM)” value in the series with sheep RBC [8] (1 h) and with sheep RBC [8] (24 h) were below 1% and 18.6 ± 1.5%, respectively.

For the molecule `CCCCCCCCCCCCCCCCOP(=O)([O-])OCC[N+](C)(C)C` [Miltefosine, reference compound], the “CMC (APLs) / CAC (pro-APLs)” value in series [9] was found to be 11.2 ± 2.3 µM; in [9] (listed as miltefosine), 11.2 µM. Besides, the IC50 with A549 cells [10] came out at 77 ± 15 µM; with H292 cells [11], 70 ± 9 µM; with 16HBE cells [12], 73 ± 8 µM. Moreover, the CMC in [13] is 12 µM; in series [14] (ref Rakotomanga et al., 2004) it was 2.5 to 3.0 µM. Besides, the HC50 in the series on red blood cells (RBC) (depending on the hematocrit, ref Alonso and Alonso, 2016) was 34 to 51 µM; in the series with red blood cells (RBC) (ref Petit et al., 2019), 41 µM. Also, the “HA200 (hemolytic activity at 200 μM)” value with sheep RBC [15] worked out at 90.8 ± 1.5%. Also, the “HC50 (concentration provoking 50% hemolysis)” value with sheep RBC [15] turned out to be 43 µM.

Consider `CCCCCCCCCCCCCCCCCCOP(=O)([O-])OC1CC[N+](C)(C)CC1` [Perifosine, reference compound], for which the entries for the “CMC (APLs) / CAC (pro-APLs)” value in series [9] and in series [9] (listed as perifosine) were 4.4 ± 1.7 µM and 4.4 µM, respectively. For the same molecule, the IC50 was determined as 127 ± 39 µM with A549 cells [10], 77 ± 3 µM in the series with H292 cells [11] and 116 ± 33 µM in the series on 16HBE cells [12]. For the same molecule, the CMC in series [14] (ref Mravljak et al., 2005) was 2.5 µM. The Hemolysis result in the series with red blood cells (RBC) (24-h exposure to 5.4 μM, ref Egler and Lang, 2017) is “ca. 30%”. For the same molecule, the “HA200 (hemolytic activity at 200 μM)” value in the series with sheep RBC [15] was 85.1 ± 4.0%. In addition, the “HC50 (concentration provoking 50% hemolysis)” value with sheep RBC [15] was determined as 46 µM.

The values above are taken from paper PMC7566913, “Dual Gene Delivery Reagents From Antiproliferative Alkylphospholipids for Combined Antitumor Therapy” (Frontiers in Chemistry, 2020).
